# From patent publication US20160367553A1, “Methods and Compositions for Treating Cancers having Acquired Resitance to prior Chemotherapeutic and Targeted Drugs Using Carboxyamidotriazole Orotate” (priority 2015, published 2016)
# Columns and labels:
# [1] = tested on: refractory head and neck tumor; assay: Phase I clinical study of CTO, patient with refractory head and neck tumor; type: in vivo, human; conditions: tumor PBKCA, E545K, 285 mg/m2/day
# Method: The effectiveness of the CTO treatment is determined by controlled clinical studies. The cancers are evaluated by measuring tumors no more than 14 days before the start of the treatment, and evaluated after 2 cycles of 28 days after day 1 of the administration of the first dose of CTO. The tumor size is measured by the most accurate measurement such as PET-CT, CI scan, MRI scan, x-ray, ultrasound, etc. The criteria for evaluating response are described in the revised Response Evaluation Criteria in Solid Tumors Guidelines, Eisenhauer et al, 1990 and by the Macdonald Criteria for response to high grade gliomas, Macdonald. et al, 1990.
# “Progressive disease” is defined as an increase of 25% or greater in the product of the largest perpendicular diameters for at least one bidimensionally measurable tumor, or an increase of 25% or greater at least one undimensionally measurable tumor or appearance of a new lesion or clinical deterioration. […]
# “Partial response” means a) for bidimensionally measurable tumors, a decrease of at least 50% in the sum of the products of tire largest perpendicular diameters of all measurable tumors as determined by two observations not less than four weeks apart, b) for undimensionally measurable tumors, a decrease by at least 50% in the sum of the largest diameters of all tumors as determined by two observation not less than four weeks apart. […]
# refractory NSCLC = assay: Phase I clinical study of CTO, patients with refractory NSCLC; type: in vivo, human; conditions: NSCLC patient; for tumor response measured after two cycles: docetaxel, erlotinib, 28 days
# [2] = tested on: metastatic colorectal cancer; assay: Phase I clinical study of CTO, patient with refractory metastatic colorectal cancer; type: in vivo, human; conditions: 285 mg/m2/day
# renal cell carcinoma = assay: Phase I clinical study of CTO, patient with refractory renal cell carcinoma; type: in vivo, human; conditions: 75 mg/m2/day
# [3] = tested on: Akt and Erk1/2 phosphorylation; conditions: exosomes-stimulated HUVEC cell; cited from earlier work
# VEGF = conditions: cited from earlier work
# [4] = tested on: imatinib mesylate-resistant chronic myeloid leukemia cells; conditions: cited from earlier work
SMILES,stable disease and partial response registered for [1],"tumor response measured after two cycles ([1]; prior cetuximab, cisplatin, taxotere, 28 days, two cycles)","stable disease and partial response registered for (refractory NSCLC; tumor EGFR, ELREATS 746-752 V (exon 19), 219 mg/m2/day)","tumor response measured after two cycles (refractory NSCLC; tumor EGFR, ELREATS 746-752 V (exon 19), prior carboplatin, paclitaxel, cisplatin, gemcitamide, premetrexed, 219 mg/m2/day)","stable disease and partial response registered for (refractory NSCLC; tumor PI3KCA, E545K, 219mg/m2/day)","tumor response measured after two cycles (refractory NSCLC; tumor PI3KCA, E545K, prior paclitaxel, carboplatin, 219mg/m2/day)","tumor response measured after two cycles ([2]; tumor BRAF V660E, prior leucovorin, fluorouracil, oxaliplatin, bevacizumab, cetuximab, capecitabine, panitumumab, irinotecan, 28 days, two cycles)",stable disease and partial response registered for ([2]; tumor),stable disease and partial response registered for (renal cell carcinoma; CTO continued),"tumor response measured after two cycles (renal cell carcinoma; prior IL-2, pegylated IFN, sorafenib, sunitnib, erlotinib, torisel, 28 days, two cycles)",effect on Akt and Erk1/2 phosphorylation [3],effect on VEGF expression and secretion (VEGF),apoptosis by down-regulating bcr-abl [4]
"NC(=O)c1nnn(Cc2cc(Cl)c(C(=O)c3ccc(Cl)cc3)c(Cl)c2)c1N.O=C(O)c1cc(=O)[nH]c(=O)[nH]1 [CTO, carboxyamidotriazole orotate]",more than six,responded by not progressing,more than twelve,responded by not progressing,more than twelve,responded by not progressing,responded to CTO by not progressing,six,over twelve,responded by not progressing,inhibits Akt and Erk1/2 phosphorylation,,
"NC(=O)c1nnn(Cc2cc(Cl)c(C(=O)c3ccc(Cl)cc3)c(Cl)c2)c1N [CAI, Carboxyamidotriazole]",,,,,,,,,,,,"inhibits VEGF expression, and secretion",induces apoptosis
